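Assay format: 96-well plates, 48-hour exposure. GI50 = concentration required for 50% inhibition of growth. The concentration for full growth arrest is given as TGI.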
How the values were obtained:
Experiment in all cases: NCI-60 cell line screen, 48 h
[1] = tested on: SNB-75 CNS
[2] = tested on: SK-OV-3 ovarian
[3] = tested on: M14 melanoma
[4] = tested on: CCRF-CEM leukemia
[5] = tested on: OVCAR-8 ovarian
[6] = tested on: MDA-MB-231 breast
[7] = tested on: UACC-257 melanoma
[8] = tested on: KM12 colon
[9] = tested on: U251 CNS
[10] = tested on: SNB-19 CNS
[11] = tested on: CAKI-1 renal
[12] = tested on: HS 578T breast
[13] = tested on: PC-3 prostate
[14] = tested on: K-562 leukemia
[15] = tested on: HCT-15 colon
[16] = tested on: HT29 colon
[17] = tested on: SK-MEL-28 melanoma
[18] = tested on: SN12C renal
[19] = tested on: HL-60(TB) leukemia
[20] = tested on: LOX IMVI melanoma
[21] = tested on: T-47D breast
[22] = tested on: RXF 393 renal
[23] = tested on: HCC-2998 colon
[24] = tested on: HOP-62 NSCLC
[25] = tested on: 786-0 renal
[26] = tested on: NCI/ADR-RES ovarian
[27] = tested on: MALME-3M melanoma
[28] = tested on: UACC-62 melanoma
[29] = tested on: MOLT-4 leukemia

`N#Cc1c(-c2ccc(Cl)cc2)nc(SCc2ccc(F)cc2)nc1N1CCNCC1` showed a TGI [1] of 2830 nM, a GI50 [2] of 10400 nM and a TGI [2] of 24800 nM. For the same compound, the GI50 [3] was 1670 nM, the TGI [3] was 3090 nM and the GI50 [4] was 2820 nM. The TGI [4] was 8280 nM, the GI50 [5] was 1840 nM and the TGI [5] was 3450 nM. For the same compound, the GI50 [6] was 1830 nM, the TGI [6] was 3470 nM and the GI50 [7] was 1640 nM. It also gave a TGI [7] of 3130 nM, a GI50 [8] of 1910 nM and a TGI [8] of 3820 nM. The GI50 [9] was 1690 nM, the TGI [9] was 3130 nM and the GI50 [10] was 2210 nM. For the same compound, the TGI [10] was 6020 nM, the GI50 [11] was 1400 nM and the TGI [11] was 2710 nM. It also gave a GI50 [12] of 1950 nM, a TGI [12] of 4450 nM and a GI50 [13] of 1790 nM. For the same compound, the TGI [13] was 3750 nM, the GI50 [14] was 2090 nM and the TGI [14] was 5220 nM. It also gave a GI50 [15] of 1810 nM, a TGI [15] of 3450 nM and a GI50 [16] of 1740 nM. It also gave a TGI [16] of 3140 nM, a GI50 [17] of 1740 nM and a TGI [17] of 3150 nM. The GI50 [18] was 1730 nM, the TGI [18] was 3330 nM and the GI50 [19] was 1830 nM. The TGI [19] was 4200 nM, the GI50 [20] was 1700 nM and the TGI [20] was 3070 nM. For the same compound, the GI50 [21] was 1690 nM, the TGI [21] was 3520 nM and the GI50 [22] was 1530 nM. It also gave a TGI [22] of 2870 nM, a GI50 [23] of 1800 nM and a TGI [23] of 3220 nM. It also gave a GI50 [24] of 1640 nM, a TGI [24] of 3260 nM and a GI50 [25] of 1610 nM. It also gave a TGI [25] of 3200 nM, a GI50 [26] of 1730 nM and a TGI [26] of 3280 nM. For the same compound, the GI50 [27] was 1690 nM, the TGI [27] was 3350 nM and the GI50 [28] was 1760 nM. For the same compound, the TGI [28] was 3330 nM, the GI50 [29] was 2430 nM and the TGI [29] was 6540 nM.
